Measurements: article PMC10830684, “Effect of Oregon grape root extracts on P-glycoprotein mediated transport in in vitro cell lines” (Journal of Pharmacy & Pharmaceutical Sciences, 2024)

Experiments:
MDCKII-MDR1 cells = test: MTT cytotoxicity assay in MDCKII-MDR1 cells; assay type: cell-based, Canine; conditions: 4 hours exposure
Description: (§1) We initiated cytotoxicity experiments with the Caco-2, MDCKII-MDR1 and MDCKII-wild type cells on Day 7 (Caco-2) and Day 4 (MDCKII-MDR1 and MDCKII-wild type) after the initial plating of the cells at 2.5 × 10^3 cells/well in 48-well plates (Becton Dickinson, Franklin Lakes, NJ, USA). See details of preparation for the cytotoxicity experiments in Supplementary Material.
We initiated cytotoxicity experiments with the Caco-2, MDCKII-MDR1 and MDCKII-wild type cells on Day 7 (Caco-2) and Day 4 (MDCKII-MDR1 and MDCKII-wild type) after the initial plating of the cells at 2.5x10^3 cells/well in 48-well plates (Becton Dickinson, Franklin Lakes, NJ, USA). Stock solutions of 10 mM berberine or berbamine were prepared by dissolving the compounds in DMSO (berberine) or distilled water (berbamine). […] The final concentration of DMSO was 0.003% (v/v), 0.03% (v/v), 0.3% (v/v), 1% (v/v), 1.5% (v/v), and 3% (v/v) DMSO/culture medium for 0.3 μM, 3 μM, 30 μM, 100 μM, ,150 μM, and 300 μM, respectively. The final concentration of ethanol was 0.15% (v/v) ethanol/culture medium. Ketoconazole (75 µM) was used as a positive control and no treatment (medium alone) was used as a negative control for each experiment.
(§2) The LDH enzymatic activities were assayed using the method of Mitchell et al.(1). […] Enzyme leakage into the medium was expressed as the percentage of total cellular LDH. The MTT (3-(4,5-dimethythiazole-2yl)-2,5-diphenyl tetrazolium bromide) reduction assay was done according to Mosmann (2). This assay was conducted immediately with the same cells used in the LDH study. The results were expressed as the percentage of negative controls.

[1] = design: method as in PMID 16086103; conditions: renal-transplant patients; co-administration of 200 mg berberine three times a day for 12 days; cited from earlier work
Caco-2 cells [2] = test: LDH leakage cytotoxicity assay in Caco-2 cells; assay type: cell-based, human; conditions: 4 hours exposure
Description: as §1
We initiated cytotoxicity experiments with the Caco-2, MDCKII-MDR1 and MDCKII-wild type cells on Day 7 (Caco-2) and Day 4 (MDCKII-MDR1 and MDCKII-wild type) after the initial plating of the cells at 2.5x10^3 cells/well in 48-well plates (Becton Dickinson, Franklin Lakes, NJ, USA). Stock solutions of 10 mM berberine or berbamine were prepared by dissolving the compounds in DMSO (berberine) or distilled water (berbamine).
as §2

P-glycoprotein = P-glycoprotein (Homo sapiens, UniProt P08183); test: Effect on 3H-CsA and 3H-digoxin transport in Caco-2 cells; conditions: for Papp (B to A) of 3H-CsA / Papp (B to A) of 3H-digoxin: Caco-2; for Papp (B to A) of 3H-CsA: 0.5 µM 3H-CsA
Caco-2 cells [3] = test: Transepithelial transport of berberine and berbamine across Caco-2 cells; assay type: in vitro ADME, human; conditions: 100 µM; Caco-2 cells
Procedure: Transport of ^3H-CsA and ^3H-digoxin (0.5 µM and 1.0 µCi), MDR1 substrates, were performed using transport buffer consisting of HBSS with 10 mM HEPES and 25 mM D-glucose at a pH of 6.8 for the apical (A) compartment and 7.4 for the basolateral (B) compartment. Experiments were performed at 37°C, 5% CO2, and 95% relative humidity. Cells in the Transwell® inserts were washed 3 times with a transport buffer and allowed to equilibrate for 30 min prior to the addition of test compounds. […] To evaluate the efflux mechanism involved with berberine and berbamine, 100 µM of berberine and berbamine were placed in the donor chamber and 100 µL samples were collected in the receiver chamber at 0, 0.5, 1.0, 1.5, 2.0, 2.5, and 3.0 h and analyzed by HPLC. Each experiment was performed in duplicate and repeated for each condition tested. For experiments performed in “non-sink” conditions, 100 µL aliquots were taken from the donor and receiver chambers at the beginning and from the receiver chamber at 0.5, 1.0, 1.5, 2.0, 2.5, and 3.0 h. An equal volume of 100 µL was replaced in the chamber at each sample time point. “Non-sink” conditions were performed when less than 10% of compound is transported across cells during the transport experiment such that a concentration gradient was always present. For the “sink” condition experiments, the entire receiver volume was replaced at each time interval and a 100 µL aliquot was taken from the receiver volume for scintillation counting. A 100 µL sample was taken from the donor chamber at 3 h in order to calculate the mass balance of radioactivity to determine if adsorption to the cell culture transport apparatus had occurred. Each sample was placed in 0.9 mL of scintillation fluor (Cytoscint ES, ICN, Cosa Mesa, CA, USA) and read on a Beckman LS 6500 (Palo Alto, CA, USA) scintillation counter for ^3H activity. For berberine and berbamine analysis, 100 µL aliquot was assayed by HPLC.
The apparent permeability (Papp) was calculated using the following equation [40]: Papp=dQ/dt×1/A×C0
Where A is the surface area of the monolayer (4.71 cm^2) and C0 is the initial concentration of radiolabeled probe substrate in the donor compartment. dQ/dt is the slope of the steady-state rate constant. The efflux ratio was determined by dividing the Papp in the B to A direction by the Papp in the A to B direction: Efflux ratio=PappB to A/PappA to B
A Waters 2690 separations module with a Model 996 photodiode array detector with the Millennium 32 Chromatograph Manager version 3.0 software (Waters Corporation, Milford, MA, USA) was used for HPLC analysis. […] All the standards and samples were filtered (0.2 µm) prior to injection. Ten µL was injected onto a 250 × 4.6 mm i.d., […], Zorbax Eclipse X DB-C18 Column (Agilent Technologies, Palo Alto, CA, USA) with a 3.9 × 20 mm i.d. Symmetry® C18 guard column, with an isocratic mobile phase of 32:68 acetonitrile:buffer. The buffer consisted of 30 mM ammonium acetate and 14 mM TEA and was adjusted to pH 4.85 with acetic acid. A flow rate of 1 mL/min and UV absorption at 254 nm was used for analysis. The retention time of berberine and berbamine was 7.84 min and 3.03 min, respectively. The cumulative amount of transport was determined using the corresponding peak area for berberine or berbamine. The cumulative amount of berberine or berbamine transported across the cell membrane was evaluated as a functionof time. The Papp was calculated by the following equation: […]

P-glycoprotein, sequence (P08183 whole entry): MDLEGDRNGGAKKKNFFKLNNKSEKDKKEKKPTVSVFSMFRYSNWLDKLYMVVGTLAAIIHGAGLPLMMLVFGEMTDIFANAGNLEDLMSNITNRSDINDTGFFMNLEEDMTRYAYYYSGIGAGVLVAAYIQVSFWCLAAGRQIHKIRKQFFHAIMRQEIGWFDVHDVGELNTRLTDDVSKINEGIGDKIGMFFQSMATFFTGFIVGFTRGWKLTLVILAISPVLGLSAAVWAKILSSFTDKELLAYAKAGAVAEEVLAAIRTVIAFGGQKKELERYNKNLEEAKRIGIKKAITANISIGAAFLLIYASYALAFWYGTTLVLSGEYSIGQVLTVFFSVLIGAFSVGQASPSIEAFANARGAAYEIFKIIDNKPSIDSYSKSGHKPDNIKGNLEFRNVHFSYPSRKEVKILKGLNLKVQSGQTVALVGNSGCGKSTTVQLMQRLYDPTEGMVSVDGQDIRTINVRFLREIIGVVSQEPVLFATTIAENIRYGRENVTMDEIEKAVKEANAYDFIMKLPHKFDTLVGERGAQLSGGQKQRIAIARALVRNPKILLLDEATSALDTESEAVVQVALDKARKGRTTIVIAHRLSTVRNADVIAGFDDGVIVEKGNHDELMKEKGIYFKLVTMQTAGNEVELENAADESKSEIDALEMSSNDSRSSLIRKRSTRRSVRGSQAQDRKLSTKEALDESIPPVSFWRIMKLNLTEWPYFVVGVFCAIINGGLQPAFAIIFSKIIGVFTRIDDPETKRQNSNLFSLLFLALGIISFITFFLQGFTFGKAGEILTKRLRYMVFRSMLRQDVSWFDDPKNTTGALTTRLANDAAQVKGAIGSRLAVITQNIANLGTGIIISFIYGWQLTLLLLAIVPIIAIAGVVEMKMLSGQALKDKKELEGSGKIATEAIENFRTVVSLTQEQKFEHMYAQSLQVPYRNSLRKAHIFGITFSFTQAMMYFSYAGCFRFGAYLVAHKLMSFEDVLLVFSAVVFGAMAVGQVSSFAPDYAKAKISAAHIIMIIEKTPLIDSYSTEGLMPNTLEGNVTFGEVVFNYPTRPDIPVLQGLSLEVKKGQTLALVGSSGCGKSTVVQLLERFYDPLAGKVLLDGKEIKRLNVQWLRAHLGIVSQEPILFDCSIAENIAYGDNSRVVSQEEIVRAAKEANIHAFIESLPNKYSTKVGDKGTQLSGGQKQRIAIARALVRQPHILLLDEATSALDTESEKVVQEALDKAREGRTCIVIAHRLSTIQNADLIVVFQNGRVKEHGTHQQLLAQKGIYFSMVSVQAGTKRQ

Q: With `COc1ccc2cc3[n+](cc2c1OC)CCc1cc2c(cc1-3)OCO2.[Cl-]` [Berberine, Berberine chloride] as the compound, how does the MTT assay (MDCKII-MDR1 cells; 0.03 µM) read?
A: Its MTT assay is “□ (%MTT reduction is not significantly decreased compared with the negative control)”.

Q: And the MTT assay (MDCKII-MDR1 cells; 3.0 µM)?
A: Its MTT assay is “□ (%MTT reduction is not significantly decreased compared with the negative control)”.

Q: And the MTT assay (MDCKII-MDR1 cells; 100 µM)?
A: Its MTT assay is “□ (%MTT reduction is not significantly decreased compared with the negative control)”.

Q: What about the MTT assay (MDCKII-MDR1 cells; 150 µM) of the same compound?
A: The MTT assay was “□ (%MTT reduction is not significantly decreased compared with the negative control)”.

Q: What about the MTT assay (MDCKII-MDR1 cells; 300 µM) of the same compound?
A: Its MTT assay is “□ (%MTT reduction is not significantly decreased compared with the negative control)”.

Q: And the “increase of mean area under the curve of CsA” value [1]?
A: The value was 34.5%.

Q: And the LDH assay (Caco-2 cells [2]; 150 µM)?
A: The LDH assay was 25.93 ± 4.78%.

Q: What about the LDH assay (Caco-2 cells [2]; 300 µM) of the same compound?
A: Its LDH assay is 44.88 ± 2.09%.

Q: And the “Papp (B to A) of 3H-CsA” value (P-glycoprotein; 10 µM compound)?
A: Its value is 1.79 ± 0.16 x 10^−6 cm/s.

Q: And the “Papp (B to A) of 3H-digoxin” value (P-glycoprotein; 10 µM compound, 0.5 µM 3H-digoxin)?
A: The value was 2.37 ± 0.26 x 10^−6 cm/s.

Q: What about the “Papp (B to A) of 3H-CsA” value (P-glycoprotein; 30 µM compound) of the same compound?
A: The value was 1.52 ± 0.14 x 10^−6 cm/s.

Q: What about the “Papp (B to A) of 3H-digoxin” value (P-glycoprotein; 30 µM compound, 0.5 µM 3H-digoxin) of the same compound?
A: The value was 2.26 ± 0.29 x 10^−6 cm/s.

Q: And the “Papp (B to A) of 3H-CsA” value (P-glycoprotein; 100 µM compound)?
A: The value was 1.60 ± 0.45 x 10^−6 cm/s.

Q: And the “Papp (B to A) of 3H-digoxin” value (P-glycoprotein; 100 µM compound, 0.5 µM 3H-digoxin)?
A: Its value is 2.93 ± 0.07 x 10^−6 cm/s.

Q: What about the “lowest concentration with significant decrease of B to A transport of 0.5 µM 3H-CsA” value (P-glycoprotein; Caco-2 cells) of the same compound?
A: Its value is 10 µM.

Q: What about the “effect on digoxin transport” value (P-glycoprotein; Caco-2 cells, up to 30 μM, 0.5 µM 3H-digoxin) of the same compound?
A: The value was “no significant effects”.

Q: And the “Papp A to B direction” value (Caco-2 cells [3])?
A: The value was 2.35 ×10⁻⁶ cm/s.

Q: What about the “Papp B to A direction” value (Caco-2 cells [3]) of the same compound?
A: The value was 10.4 ×10⁻⁶ cm/s.

Q: What about the “fold increase of Papp B to A compared with A to B” value (Caco-2 cells [3]) of the same compound?
A: The value was ~4 fold.

Q: What about the “transport in the A to B direction” value (Caco-2 cells [3]) of the same compound?
A: Its value is 0.18 nmol/min.

Q: And the “transport in the B to A direction” value (Caco-2 cells [3])?
A: The value was 1.45 nmol/min.
